Experimental data published in the NIST ThermoML archive (doi:10.1021/je030136n).

Assay: xn = mol fraction of the nth substance listed
Conditions: Liquid, Pulse-echo method

CCCCCCC [heptane] + CCCO
Conditions	speed of sound [m/s]
313.15 K, 100 kPa, x2 = 0.1008	1061
313.15 K, 100 kPa, x2 = 0.4992	1074.8
313.15 K, 30400 kPa, x2 = 0.1008	1267.9
313.15 K, 45590 kPa, x2 = 0.4992	1349.9
313.15 K, 60790 kPa, x2 = 0.3008	1416.4
313.15 K, 75990 kPa, x2 = 0.4992	1481.4
313.15 K, 75990 kPa, x2 = 0.7016	1486.3
313.15 K, 91190 kPa, x2 = 0.3008	1539.3
313.15 K, 91190 kPa, x2 = 0.4992	1539.3
313.15 K, 101320 kPa, x2 = 0.4992	1575.5
313.15 K, 111450 kPa, x2 = 0.3008	1611.5
313.15 K, 121580 kPa, x2 = 0.3008	1645.1
313.16 K, 30400 kPa, x2 = 0.7986	1293.2
313.16 K, 91190 kPa, x2 = 0.1008	1543.3
313.16 K, 101320 kPa, x2 = 0.3008	1576.2
313.16 K, 121580 kPa, x2 = 0.4992	1643.3
313.17 K, 100 kPa, x2 = 0.3008	1065
313.17 K, 30400 kPa, x2 = 0.3008	1268.1
313.17 K, 75990 kPa, x2 = 0.3008	1480.3
313.17 K, 111450 kPa, x2 = 0.4992	1610.1
313.17 K, 111450 kPa, x2 = 0.6027	1610
313.17 K, 121580 kPa, x2 = 0.6027	1642.9
313.19 K, 101320 kPa, x2 = 0.1008	1580.6
313.19 K, 111450 kPa, x2 = 0.1008	1616.3
313.19 K, 121580 kPa, x2 = 0.1008	1649.7
313.2 K, 111450 kPa, x2 = 0	1622
313.2 K, 111450 kPa, x2 = 0.7016	1611.6
313.21 K, 101320 kPa, x2 = 0	1586.2
313.22 K, 45590 kPa, x2 = 0.7016	1358.4
313.22 K, 121580 kPa, x2 = 0.7016	1643.9
313.23 K, 30400 kPa, x2 = 0.7016	1284.3
313.23 K, 60790 kPa, x2 = 0.7016	1425.1
313.24 K, 100 kPa, x2 = 0.7016	1095.2
318.08 K, 100 kPa, x2 = 0.7986	1090.8
318.09 K, 75990 kPa, x2 = 0	1475.5
318.09 K, 121580 kPa, x2 = 0.7016	1632.8
318.11 K, 101320 kPa, x2 = 0.7986	1569.1
318.12 K, 45590 kPa, x2 = 0.7986	1351.4
318.12 K, 60790 kPa, x2 = 0.4992	1404.4
318.13 K, 100 kPa, x2 = 0.4992	1054.3
318.13 K, 30400 kPa, x2 = 0.7986	1277.9
318.13 K, 45590 kPa, x2 = 0.4992	1334.8
318.13 K, 111450 kPa, x2 = 0.7986	1602.7
318.13 K, 121580 kPa, x2 = 0.4992	1631.5
318.14 K, 100 kPa, x2 = 0.7016	1076.2
318.14 K, 30400 kPa, x2 = 0.4992	1256.9
318.14 K, 75990 kPa, x2 = 0.7986	1478
318.14 K, 121580 kPa, x2 = 0.7986	1634.8
318.15 K, 30400 kPa, x2 = 0.7016	1268.9
318.15 K, 45590 kPa, x2 = 0.7016	1344.1
318.15 K, 60790 kPa, x2 = 0.6027	1406.9
318.15 K, 60790 kPa, x2 = 0.7016	1411.6
318.15 K, 60790 kPa, x2 = 0.7986	1417.5
318.15 K, 75990 kPa, x2 = 0.1008	1469.4
318.15 K, 91190 kPa, x2 = 0	1535.7
318.15 K, 111450 kPa, x2 = 0.4992	1598
318.16 K, 45590 kPa, x2 = 0.6027	1338.2
318.16 K, 91190 kPa, x2 = 0.7016	1530.2
318.16 K, 91190 kPa, x2 = 0.7986	1533.9
318.16 K, 101320 kPa, x2 = 0.4992	1563
318.16 K, 101320 kPa, x2 = 0.7016	1565.9
318.17 K, 45590 kPa, x2 = 0	1337.4
318.17 K, 60790 kPa, x2 = 0	1409.6
318.17 K, 60790 kPa, x2 = 0.1008	1403.9
318.17 K, 75990 kPa, x2 = 0.7016	1473.2
318.17 K, 91190 kPa, x2 = 0.3008	1526.1
318.17 K, 91190 kPa, x2 = 0.4992	1526.3
318.17 K, 101320 kPa, x2 = 0.1008	1567.7
318.17 K, 111450 kPa, x2 = 0.1008	1603.7
318.17 K, 111450 kPa, x2 = 0.3008	1599
318.17 K, 111450 kPa, x2 = 0.7016	1600
318.17 K, 121580 kPa, x2 = 0	1644.3
318.17 K, 121580 kPa, x2 = 0.1008	1637
318.17 K, 121580 kPa, x2 = 0.3008	1633
318.18 K, 100 kPa, x2 = 0	1044.5
318.18 K, 100 kPa, x2 = 0.1008	1039.7
318.18 K, 15200 kPa, x2 = 0	1163.4
318.18 K, 15200 kPa, x2 = 0.1008	1157.8
318.18 K, 30400 kPa, x2 = 0	1256.5
318.18 K, 75990 kPa, x2 = 0.3008	1466.5
318.18 K, 75990 kPa, x2 = 0.4992	1467.8
318.18 K, 101320 kPa, x2 = 0	1573.6
318.18 K, 101320 kPa, x2 = 0.3008	1563.3
318.18 K, 111450 kPa, x2 = 0	1609.8
318.18 K, 121580 kPa, x2 = 0.6027	1631.3
318.19 K, 30400 kPa, x2 = 0.3008	1251.4
318.19 K, 45590 kPa, x2 = 0.1008	1331.6
318.19 K, 45590 kPa, x2 = 0.3008	1330.8
318.19 K, 60790 kPa, x2 = 0.3008	1401.9
318.2 K, 100 kPa, x2 = 0.6027	1063.5
318.2 K, 30400 kPa, x2 = 0.1008	1250.7
318.2 K, 101320 kPa, x2 = 0.6027	1563.5
318.21 K, 100 kPa, x2 = 0.3008	1043.8
318.21 K, 91190 kPa, x2 = 0.6027	1527.2
318.23 K, 30400 kPa, x2 = 0.6027	1261.4
318.23 K, 111450 kPa, x2 = 0.6027	1598
318.27 K, 75990 kPa, x2 = 0.6027	1469.2
